Broadly, the IC50 is the concentration that inhibits the measured activity by half. In general, EC50 refers to the concentration at which the effect is half-maximal. One may read the viability as the share of living cells, or the viability signal relative to a control. High values mean less harm to the cells, low ones more harm to the cells. As a reminder, the inhibition is how much of the control response was suppressed.

This is an account of results in publication PMC8027839 (Scientific Reports, 2021).

In data set [1] the target is T1, SapM (Mycobacterium tuberculosis, UniProt O53361).
T1 construct: made in house; host or cells: Escherichia coli C41 (DE3)
T1 sequence (O53361 44-299): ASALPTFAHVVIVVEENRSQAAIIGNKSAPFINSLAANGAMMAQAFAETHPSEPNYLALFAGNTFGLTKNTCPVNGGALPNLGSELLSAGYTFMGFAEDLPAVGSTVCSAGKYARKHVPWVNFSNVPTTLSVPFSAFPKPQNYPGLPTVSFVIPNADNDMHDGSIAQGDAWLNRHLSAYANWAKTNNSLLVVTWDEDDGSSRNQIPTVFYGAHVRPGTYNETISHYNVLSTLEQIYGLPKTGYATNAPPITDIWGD
Nature of the data set: biochemical. The format is biochemical. The following applies: for remaining activity at 100 µM: 0.5 h, relative to pNPP DMSO control, read-out: %SA (percentage specific activity of SapM); for remaining activity at 100 µM / effect on SapM enzyme activity: compounds at 100 µM; for IC50: pNPP assay, dose-response.

Another data set addresses MptpB (Mycobacterium tuberculosis, UniProt I6WXK4). Nature of the data set: biochemical. Conditions: pNPP assay, pH 6.
The subject of the next data set is M. bovis BCG ΔsapM. The format is cell-based. Conditions: 40 µM.
The subject of the next data set is F. tularensis. The data set is classed as cell-based, Francisella tularensis. Conditions: 40 µM; 24 h.
Data set [2] in a line: Compound precipitation in enzyme assays. The format is physicochemical. Conditions: AcpA Malachite Green assay.
Data set [3] has as its target T1, SapM. Kind of data set: Microscale thermophoresis of SapM binding. The following applies: for EC50: MST titration. The procedure:
Microscale thermophoresis (MST) was used to study the direct binding interaction of SapM with three compounds 1, 2 and 13. SapM was labelled with NTA-647nm dye which attaches to the 6-histidine tag. 100 nM NTA-647 was incubated with 200 nM SapM for 1-hour at 4 °C and then centrifuged at 20,000 rcf for 20 minutes at 4 °C in 20 mM HEPES, 200 mM NaCl pH 7.0. 10 mM compound was diluted to 500 μM in the same buffer. Binding checks were carried out with labelled SapM (5 nM) with and without 250 nM compound with LED power of 20% and a medium MST power in a Monolith Pico instrument and using standard capillaries. Binding analysis was performed with a doubling serial dilution from 250 nM with 16 dilutions and a constant concentration of 5 nM labelled SapM.

The target of data set [4] is T1, SapM. Nature of the data set: Type of inhibition of SapM, Lineweaver-Burk plots. The data set is classed as biochemical. From the text:
To determine the type of inhibition different inhibitor concentrations were selected to yield around 30% and 75% inhibition for each concentration of pNPP. This ensures sufficient signal to obtain accurate data while allowing a significant inhibition effect. Velocity (V) was plotted as a function of pNPP concentration and fit in a Lineweaver–Burk plot (double-reciprocal) using GraphPad Prism 8.41. All assays were done in 96-well microplates and performed in triplicate in at least two independent experiments.

Data set [5] is described as follows: MTT cytotoxicity assay, MH-S. The following applies: mouse, MH-S cells (SV40-transformed alveolar macrophage cell line). Background: Tetrazolium dyes change colour on reduction, which living cells bring about.
The subject of another data set is M. bovis BCG wild-type. The format is cell-based. Conditions: Raw 264.7 macrophages; 40 µM; 72 h post-infection; vs DMSO.
In the next data set the target is MptpA (Mycobacterium tuberculosis, UniProt P9WIA1). Kind of data set: biochemical. The following applies: pNPP assay, pH 6.
Sequence of MptpA (P9WIA1 whole entry): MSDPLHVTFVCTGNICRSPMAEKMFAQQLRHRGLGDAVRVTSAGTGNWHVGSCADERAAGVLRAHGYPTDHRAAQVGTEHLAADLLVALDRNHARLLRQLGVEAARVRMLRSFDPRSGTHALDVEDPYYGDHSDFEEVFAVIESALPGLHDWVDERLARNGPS
Data set [6] relates to Francisella tularensis live vaccine strain (LVS). The format is cell-based. The following applies: MH-S macrophages; 40 μM; 24 h post infection.
Another data set deals with Mtb H37Rv strain. Nature of the data set: Mycobacterium tuberculosis infection assay in THP-1 macrophages. The format is cell-based. Conditions: resting THP-1 macrophages; 1 µM and 40 µM; 24 h and 72 h post infection.
The target of data set [7] is T2, AcpA (Francisella tularensis subsp. novicida, UniProt A0Q436). Kind of data set: biochemical. Conditions: 1 mM; read-out: inhibition of enzymatic activity of AcpA.
T2 sequence (A0Q436 21-514 limits assumed): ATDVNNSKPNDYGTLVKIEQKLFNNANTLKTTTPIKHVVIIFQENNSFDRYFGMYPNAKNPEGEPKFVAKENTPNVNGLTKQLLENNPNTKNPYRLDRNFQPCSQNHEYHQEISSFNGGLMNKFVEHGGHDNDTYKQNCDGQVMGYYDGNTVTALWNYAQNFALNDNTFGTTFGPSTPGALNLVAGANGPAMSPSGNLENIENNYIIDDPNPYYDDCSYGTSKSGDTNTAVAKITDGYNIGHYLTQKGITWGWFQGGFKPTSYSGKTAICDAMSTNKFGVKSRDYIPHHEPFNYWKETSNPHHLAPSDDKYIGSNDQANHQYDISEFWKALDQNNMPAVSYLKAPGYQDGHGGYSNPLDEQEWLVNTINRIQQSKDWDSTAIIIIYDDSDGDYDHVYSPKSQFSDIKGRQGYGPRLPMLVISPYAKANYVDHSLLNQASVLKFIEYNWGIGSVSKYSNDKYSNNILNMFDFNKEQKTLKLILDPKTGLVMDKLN
A further data set has as its target VHR (Homo sapiens, UniProt P51452). Kind of data set: hVHR inhibition, pNPP assay. The data set is classed as biochemical.
In the next data set the target is T3, PTP1B (Homo sapiens, UniProt P18031).
T3 sequence (P18031 1-435): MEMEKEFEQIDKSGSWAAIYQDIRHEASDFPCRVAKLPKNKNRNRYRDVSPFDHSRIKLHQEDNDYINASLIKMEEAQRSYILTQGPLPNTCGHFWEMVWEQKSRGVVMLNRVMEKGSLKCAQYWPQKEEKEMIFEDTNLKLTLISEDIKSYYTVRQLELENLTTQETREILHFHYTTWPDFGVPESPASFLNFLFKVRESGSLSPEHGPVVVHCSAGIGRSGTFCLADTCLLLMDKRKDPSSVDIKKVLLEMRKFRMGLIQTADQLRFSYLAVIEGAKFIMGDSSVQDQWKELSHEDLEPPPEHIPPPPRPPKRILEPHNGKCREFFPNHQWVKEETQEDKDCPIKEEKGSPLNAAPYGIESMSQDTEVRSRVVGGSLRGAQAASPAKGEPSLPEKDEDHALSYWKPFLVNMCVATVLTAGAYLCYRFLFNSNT
Kind of data set: hPTP1B inhibition, pNPP assay. The data set is classed as biochemical.

Data set [8] deals with T1, SapM. Also on record: method as in PMID 31312014. The following applies: previously reported; cited from earlier work.
The target in data set [9] is T2, AcpA. Kind of data set: biochemical.

Entries after “also recorded” stand apart in the source; their conditions may differ. Read-outs that look alike come from different tables or passages of the source.

Sequence of MptpB (I6WXK4 whole entry, looked up): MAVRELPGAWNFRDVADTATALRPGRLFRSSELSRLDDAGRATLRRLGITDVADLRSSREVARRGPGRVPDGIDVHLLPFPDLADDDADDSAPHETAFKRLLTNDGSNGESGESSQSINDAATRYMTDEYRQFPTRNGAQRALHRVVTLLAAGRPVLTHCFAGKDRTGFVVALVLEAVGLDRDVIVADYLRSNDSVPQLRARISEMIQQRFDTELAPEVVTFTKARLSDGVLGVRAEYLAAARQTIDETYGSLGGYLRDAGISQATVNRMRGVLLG
Sequence of VHR (P51452 whole entry): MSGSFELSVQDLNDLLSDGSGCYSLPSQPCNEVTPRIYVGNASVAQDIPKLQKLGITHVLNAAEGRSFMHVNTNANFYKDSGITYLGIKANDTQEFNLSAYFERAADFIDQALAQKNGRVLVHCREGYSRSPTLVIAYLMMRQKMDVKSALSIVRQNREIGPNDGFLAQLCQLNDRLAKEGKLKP

Consider `N#CC(C#N)=C(N)/C(C#N)=C/c1cc(O)c(O)c(O)c1` [Compound 1, Tyrphostin 51], for which, at SapM [1], the remaining activity at 100 µM was found to be 0%; the “effect on SapM enzyme activity” value is given as “completely abolished the enzymatic activity; also recorded: abolished enzyme activity completely”; the midpoint of inhibition, the IC50, lay at 6.3 ± 1 µM. Also, the IC50 against MptpB is over 100 µM. Also, the “intracellular burden of ΔsapM” value with M. bovis BCG ΔsapM is given as “did not further reduce the intracellular burden”. The “acellular growth of F. tularensis” value in the data set with F. tularensis is on record as “does not affect acellular growth”. For the same molecule, the “concentration at which compound precipitates” value in data set [2] is at least 2000 µM. The “binding to SapM by MST” value at SapM [3] is reported as “confirmed”. The EC50 on SapM [3] (Bivalent fit EC50 (1), tighter binding mode) worked out at 0.52 µM. Further, at SapM [4], the “mechanism of inhibition of SapM” value was “uncompetitive inhibitors”. Moreover, in [5], the viability at 24 h is over 70%. Moreover, the “intracellular burden of wild-type M. bovis BCG” value with M. bovis BCG wild-type was “reduced the intracellular burden”. This molecule also came in with an IC50 on MptpA of 19.8 ± 1 µM. In addition, the “reduction of F. tularensis intracellular burden” value in [6] came to 55%. For the same molecule, the “Mtb intracellular burden vs DMSO control” value with Mtb H37Rv strain is reported as “significant (****p < 0.0001) reduction”. Also, the inhibition at 1000 µM on AcpA [7] was about 30%.
On to `O=c1oc2c(cc1O)oc(=O)c1cc(O)c(O)c(O)c12` [Compound 2, Galloflavin], for which the remaining activity at 100 µM on SapM [1] came to 0%. For the same molecule, the “effect on SapM enzyme activity” value at SapM [1] is listed as “completely abolished the enzymatic activity; also recorded: inhibits SapM activity completely”. In addition, the IC50 at SapM [1] is 9.3 ± 1.1 µM; on MptpB, over 100 µM; against VHR, over 100 µM; on MptpA, 55.2 ± 1.1 µM; on PTP1B it was over 100 µM. Moreover, the “intracellular burden of ΔsapM” value in the data set on M. bovis BCG ΔsapM was “did not further reduce the intracellular burden”. The “binding to SapM by MST” value on SapM [3] was “confirmed”. Also, the EC50 at SapM [3] (read-out: Single species dose response EC50) was 32 ± 16 µM. On SapM [4], the “mechanism of inhibition of SapM” value is reported as “uncompetitive inhibitors”. Besides, the “intracellular burden of wild-type M. bovis BCG” value in the data set with M. bovis BCG wild-type was “reduced the intracellular burden”. Moreover, the “Mtb intracellular burden vs DMSO control” value in the data set with Mtb H37Rv strain is “significant (****p < 0.0001) reduction”.
For `O=C1O[C@H]([C@@H](O)CO)C(O)=C1OP(=O)(O)O` [Compound 2P-AC, 2-phospho-L-ascorbic acid], the IC50 on SapM [8] was over 200 µM; against AcpA [9] it was 116 ± 1.02 µM.
